Measurements: patent US20090176288A1, “Methods and Compositions for Butanol Production” (priority 2006, published 2009)
Where two headings read alike, the source gives them in different places.

Experiments:
[1] = test system: BUT-R/1 mutant (ATCC No. PTA-8515); details: 3 days, 37° C.
Procedure: (§1) But-R/1 mutant (ATCC No. PTA-8515), a derivative of C. acetobutylicum ATCC 824, was produced via long-term incubation of wild-type C. acetobutylicum 824 in reinforced Clostridium medium (“RCM”) with glucose (0.5%) and butanol (2.5% v/v) under anaerobic conditions at 37° C. When turbidity developed, the bacterial suspension was spread onto RCM agar with 2.5% butanol. […] Mutants were purified twice using RCM agar containing 2.5% of butanol. […] Cells were grown for 3 days in RCM medium in an anaerobic jar at 37° C. Optical density of cell suspensions was measured at 600 nm spectrophotometrically.

[2] = test system: Clostridium acetobutylicum ATCC 824 (wild type); details: 3 days, 37° C.
Procedure: as §1

[3] = test system: omrA/pCR-II TOPO/TOP10 E. coli cells
Procedure: Survival rates of E. coli strains with and without the omrA-plasmid were determined. […] For this experiment, the omrA gene was inserted into the expression plasmid pCR-Blunt II-TOPO (invitrogen, Carlsbad, Calif.) hosted by the TOP10 E. coli strain [F-mcrA Δ (mcr-hsdRMS-mcrBC) Φ)80lacZ ΔM15 ΔlacX74 recA1 deoR araD139 Δ (ara-leu)7697 galU galK rpsL (Str^R) endA1 nupG]. The plasmid with no insertion was used as a control. Flasks (50 ml) containing 10 ml of LB broth with 50 μg/ml kanamycin were inoculated with 100 μl of bacterial cells grown overnight at 37° C. in the same medium and incubated at 37° C. with aeration (200 rpm) for 4 hours. Bacterial growth was stopped by adding chloramphenicol (100 μg/ml) and optical density of cell cultures measured spectrophotometrically at 600 nm.

butanol
Growth inhibition, Mutant ([1]; butanol 0.3 % (v/v)): 0
Growth inhibition, Mutant ([1]; butanol 0.6 % (v/v)): 0
Growth inhibition, Mutant ([1]; butanol 0.9 % (v/v)): 0
Growth inhibition, Mutant ([1]; butanol 1.2 % (v/v)): 23.2
Growth inhibition, Mutant ([1]; butanol 1.5 % (v/v)): 73.8
Growth inhibition, Mutant ([1]; butanol 1.8 % (v/v)): 84.2
Growth inhibition, WT ([2]; butanol 0.3 % (v/v)): 8.4
Growth inhibition, WT ([2]; butanol 0.6 % (v/v)): 40.4
Growth inhibition, WT ([2]; butanol 0.9 % (v/v)): 56.1
Growth inhibition, WT ([2]; butanol 1.2 % (v/v)): 89.7
Growth inhibition, WT ([2]; butanol 1.5 % (v/v)): 94.2
Growth inhibition, WT ([2]; butanol 1.8 % (v/v)): 99.5
resistance to butanol compared with E. coli TOPO10 host cells ([3]; FIG. 2): slightly more resistant
bacterial survival in presence of butanol compared with host strain with no omrA gene ([3]; FIG. 3, varying levels of butanol): increased bacterial survival significantly
